Results on ten molecules are retold here after patent publication US7601716B2, “Pyridopyrazines and derivatives thereof as ALK and c-Met inhibitors” (Cephalon, Inc., priority 2006, dated 2009).

The structures appear in SMILES notation.

baculovirus-expressed ALK, sequence (Q9UM73 19-1620): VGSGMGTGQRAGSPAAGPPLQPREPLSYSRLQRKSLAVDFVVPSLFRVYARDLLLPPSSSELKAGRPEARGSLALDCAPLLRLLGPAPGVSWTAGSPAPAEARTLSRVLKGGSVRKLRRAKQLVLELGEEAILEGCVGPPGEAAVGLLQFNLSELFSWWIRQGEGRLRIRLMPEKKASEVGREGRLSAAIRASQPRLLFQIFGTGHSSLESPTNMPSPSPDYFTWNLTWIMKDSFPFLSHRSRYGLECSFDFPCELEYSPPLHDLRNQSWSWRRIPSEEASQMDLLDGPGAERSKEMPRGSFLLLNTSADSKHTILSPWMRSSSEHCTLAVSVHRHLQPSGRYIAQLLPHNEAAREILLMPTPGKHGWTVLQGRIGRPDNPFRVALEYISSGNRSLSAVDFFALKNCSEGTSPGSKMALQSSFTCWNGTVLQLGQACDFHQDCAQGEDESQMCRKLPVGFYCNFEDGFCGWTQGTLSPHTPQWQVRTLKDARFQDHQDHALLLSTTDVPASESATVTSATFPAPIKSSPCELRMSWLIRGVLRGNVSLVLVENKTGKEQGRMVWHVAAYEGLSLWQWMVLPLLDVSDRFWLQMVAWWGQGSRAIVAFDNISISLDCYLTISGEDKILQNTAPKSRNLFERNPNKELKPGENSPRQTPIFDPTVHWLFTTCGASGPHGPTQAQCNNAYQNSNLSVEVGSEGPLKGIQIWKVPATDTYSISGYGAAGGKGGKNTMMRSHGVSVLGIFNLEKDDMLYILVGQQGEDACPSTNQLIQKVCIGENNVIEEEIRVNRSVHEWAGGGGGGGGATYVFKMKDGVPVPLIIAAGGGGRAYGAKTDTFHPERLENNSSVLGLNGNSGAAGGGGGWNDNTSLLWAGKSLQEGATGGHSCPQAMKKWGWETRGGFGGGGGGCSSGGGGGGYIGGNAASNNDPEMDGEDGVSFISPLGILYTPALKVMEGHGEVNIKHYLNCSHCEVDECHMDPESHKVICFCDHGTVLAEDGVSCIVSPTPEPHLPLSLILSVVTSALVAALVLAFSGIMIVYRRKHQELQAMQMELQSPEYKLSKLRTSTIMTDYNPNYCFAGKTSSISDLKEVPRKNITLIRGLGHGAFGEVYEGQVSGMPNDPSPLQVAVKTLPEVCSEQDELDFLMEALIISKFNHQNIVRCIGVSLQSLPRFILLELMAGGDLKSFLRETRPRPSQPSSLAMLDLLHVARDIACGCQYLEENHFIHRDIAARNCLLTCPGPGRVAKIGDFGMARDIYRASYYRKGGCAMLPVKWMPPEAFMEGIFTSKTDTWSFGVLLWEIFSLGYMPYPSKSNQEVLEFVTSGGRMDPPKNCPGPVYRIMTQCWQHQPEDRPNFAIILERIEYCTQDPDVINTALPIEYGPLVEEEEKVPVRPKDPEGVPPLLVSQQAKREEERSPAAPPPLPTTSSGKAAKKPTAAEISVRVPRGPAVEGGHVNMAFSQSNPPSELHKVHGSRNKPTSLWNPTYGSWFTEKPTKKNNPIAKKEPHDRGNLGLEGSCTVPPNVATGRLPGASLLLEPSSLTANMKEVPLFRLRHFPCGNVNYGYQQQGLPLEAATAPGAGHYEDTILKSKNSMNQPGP

In the assay the target is baculovirus-expressed ALK (Homo sapiens, UniProt Q9UM73). Briefly: ALK Kinase Assay (ELISA/TRF, PLC-γ substrate). Further: 1 µM ATP (Km level). As to conditions: read-out: ALK Kinase Inhibition (IC50). The class given is biochemical. Here is the method:
Example compounds were tested for their ability to inhibit the kinase activity of baculovirus-expressed ALK using a modification of the ELISA protocol reported for trkA in Angeles, T. S. et al., Anal. Biochem. 1996, 236, 49-55, which is incorporated herein by reference in its entirety. Phosphorylation of the substrate, phospholipase C-gamma (PLC-γ) generated as a fusion protein with glutathione S-transferase (GST) as reported in Rotin, D. et al., EMBO J. 1992, 11, 559-567, which is incorporated herein by reference in its entirety, was detected with a europium-labeled anti-phosphotyrosine antibody and measured by time-resolved fluorescence (TRF). Briefly, each 96-well plate was coated with 100 μL/well of 10 μg/mL substrate (phospholipase C-γ) in Tris-buffered saline (TBS). […] The reaction was initiated by adding enzyme (30 ng/ml ALK) and was allowed to proceed at 37° C. for 15 minutes. Detection of the phosphorylated product was performed by adding 100 μl/well of Eu-N1 labeled PT66 antibody (Perkin Elmer # AD0041). Incubation at 37° C. then proceeded for one (1) hour, followed by addition of 100 μL enhancement solution (Wallac #1244-105). The plate was gently agitated and after thirty minutes, the fluorescence of the resulting solution was measured using the EnVision 2100 (or 2102) multilabel plate reader (Perkin Elmer).
Data analysis was performed using ActivityBase (IDBS, Guilford, UK). IC50 values were calculated by plotting percent inhibition versus log10 of the concentration of compound and fitting to the nonlinear regression sigmoidal dose-response (variable slope) equation in XLFit (IDBS, Guilford, UK).
On the technique in general: In an ELISA, binding on a coated surface is turned into a signal by an enzyme label.
A word on the IC50: it is the concentration that gives 50% inhibition. With `O=C(c1cccc(-c2cnc3c(c2)N(Cc2cc(Cl)ccc2C(F)(F)F)CCN3)c1)N1CCN(c2ccccc2)CC1` [Example 306, (3-{1-[5-Chloro-2-(trifluoromethyl)benzyl]-1,2,3,4-tetrahydropyrido[2,3-b]pyrazin-7-yl}phenyl)-(4-phenylpiperazin-1-yl)methanone], the 50% inhibitory concentration (IC50) was 100 to 1000 nM.
As for `O=C(c1cccc(-c2cnc3c(c2)N(Cc2cc(Cl)ccc2C(F)(F)F)CCN3)c1)N1CCN(c2ncccn2)CC1` [Example 307, (3-{1-[5-Chloro-2-(trifluoromethyl)benzyl]-1,2,3,4-tetrahydropyrido[2,3-b]pyrazin-7-yl}phenyl)-(4-pyrimidin-2-ylpiperazin-1-yl)methanone], the IC50 was 100 to 1000 nM.
Under `O=C(c1cccc(-c2cnc3c(c2)N(Cc2cc(Cl)ccc2C(F)(F)F)CCN3)c1)N1CCN(c2ccc(Cl)cc2)CC1` [Example 308, [4-(4-Chlorophenyl)-piperazin-1-yl]-(3-{1-[5-Chloro-2-(trifluoromethyl)benzyl]-1,2,3,4-tetrahydropyrido[2,3-b]pyrazin-7-yl}phenyl)methanone] stands 100 to 1000 nM; under `O=C(c1cccc(-c2cnc3c(c2)N(Cc2cc(Cl)ccc2C(F)(F)F)CCN3)c1)N1CCC(O)(c2ccc(Cl)cc2)CC1` [Example 309, [4-(4-Chlorophenyl)-4-hydroxypiperidin-1-yl]-(3-{1-[5-Chloro-2-(trifluoromethyl)benzyl]-1,2,3,4-tetrahydropyrido[2,3-b]pyrazin-7-yl}phenyl)methanone], 100 to 1000 nM.
The same measure for `O=C(c1cccc(-c2cnc3c(c2)N(Cc2cc(Cl)ccc2C(F)(F)F)CCN3)c1)N1CCC(n2c(=O)[nH]c3ccccc32)CC1` [Example 310, 1-[1-(3-{1-[5-Chloro-2-(trifluoromethyl)benzyl]-1,2,3,4-tetrahydropyrido[2,3-b]pyrazin-7-yl}benzoyl)piperidin-4-yl]-1,3-dihydrobenzoimidazol-2-one]: 100 to 1000 nM; for `COc1ccccc1N1CCN(C(=O)c2cccc(-c3cnc4c(c3)N(Cc3cc(Cl)ccc3C(F)(F)F)CCN4)c2)CC1` [Example 311, (3-{1-[5-Chloro-2-(trifluoromethyl)benzyl]-1,2,3,4-tetrahydropyrido[2,3-b]pyrazin-7-yl}phenyl)-[4-(2-methoxyphenyl)piperazin-1-yl]methanone]: 100 to 1000 nM; for `O=C(c1cccc(-c2cnc3c(c2)N(Cc2cc(Cl)ccc2C(F)(F)F)CCN3)c1)N1CCN(c2cccc(C(F)(F)F)c2)CC1` [Example 312, (3-{1-[5-Chloro-2-(trifluoromethyl)benzyl]-1,2,3,4-tetrahydropyrido[2,3-b]pyrazin-7-yl}phenyl)-{4-[3-(trifluoromethyl)phenyl]piperazin-1-yl}methanone]: 100 to 1000 nM.
Under `O=C(c1cccc(-c2cnc3c(c2)N(Cc2cc(Cl)ccc2C(F)(F)F)CCN3)c1)N1CCC(c2ccccc2)CC1` [Example 313, (3-{1-[5-Chloro-2-(trifluoromethyl)benzyl]-1,2,3,4-tetrahydropyrido[2,3-b]pyrazin-7-yl}phenyl)-(4-phenylpiperidin-1-yl)methanone] stands 100 to 1000 nM; under `O=C(c1cccc(-c2cnc3c(c2)N(Cc2cc(Cl)ccc2C(F)(F)F)CCN3)c1)N1CCC(c2c[nH]c3ccccc23)CC1` [Example 314, (3-{1-[5-Chloro-2-(trifluoromethyl)benzyl]-1,2,3,4-tetrahydropyrido[2,3-b]pyrazin-7-yl}phenyl)-[4-(1H-indol-3-yl)piperidin-1-yl]methanone], 100 to 1000 nM; under `O=C(c1cccc(-c2cnc3c(c2)N(Cc2cc(Cl)ccc2C(F)(F)F)CCN3)c1)N1CCN(C(c2ccccc2)c2ccccc2)CC1` [Example 315, (4-Benzhydrylpiperazin-1-yl)-(3-{1-[5-Chloro-2-(trifluoromethyl)benzyl]-1,2,3,4-tetrahydropyrido[2,3-b]pyrazin-7-yl}phenyl)methanone], 1000 to 10000 nM.
